Laboratory results reported in patent US5925633A, “3-Substituted-4-oxa-1-azabicyclo [3,2,0]heptan-7-one as cysteine protease inhibitors” (Synphar Laboraties, Inc., priority 1996, dated 1999).
pIC50: −log10 of the molar value. Where two headings read alike, the source gives them in different places.

Tests used:
papain = molecular target: T1, papain (Carica papaya, UniProt P00784); test: In vitro assay procedure for papain (inhibition); format: biochemical
T1 sequence (P00784 134-345): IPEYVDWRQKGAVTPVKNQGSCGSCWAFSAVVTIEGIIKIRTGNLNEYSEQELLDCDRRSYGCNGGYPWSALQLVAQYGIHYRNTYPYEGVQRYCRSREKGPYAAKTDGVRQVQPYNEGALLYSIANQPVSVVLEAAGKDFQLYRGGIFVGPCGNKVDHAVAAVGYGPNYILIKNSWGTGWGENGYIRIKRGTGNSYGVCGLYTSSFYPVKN
Protocol: To a 170 μl of enzyme-buffer mixture (enzyme: papain, diluted to give 30 mOD/min, buffer: 0.2 M potassium phosphate, 1.0 mM EDTA, 5 mM L-Cysteine, pH 6.5) a 10 μL of inhibitor (dissolved in DMSO) was added. After 10 min of incubation at room temperature, a 20 μl of 10 mM substrate (N-CBZ-Pro-Phe-Arg-pNA, dissolved in DMSO) was added to initiate reaction. Reading is followed up for 3 min at the Thermomax plate reader (absorbance at 405 nm)
A plot of percentage of inhibition vs inhibitor concentration is obtained, and IC50 is determined using a linear regression calculations (concentration of inhibitor which will give 50% inhibition).

cathepsin B = cathepsin B (Rattus norvegicus, UniProt P00787); test: In vitro assay procedure for cathepsin B (inhibition); format: biochemical
Protocol: The compounds of formula I were tested for inhibition of cathepsin B using the known method (A. J. Barret et al., Biochem. J. 1982, 201, 189-198). […] After 10 min of incubation at room temperature, a 20 μl of 5 mM substrate (N-CBZ-Phe-Arg-AMC, dissolved in DMSO) was added to initiate reaction. Reading is followed up for 10 min at the fluoroscan reader (excitation at 380 nm, emission at 460 nm).

[1] = rat cathepsin B, pH 5.1, 10 min incubation at room temperature, substrate N-CBZ-Phe-Arg-AMC, read-out: IC50 Cathepsin B
[2] = pH 6.5, 10 min incubation at room temperature, substrate N-CBZ-Pro-Phe-Arg-pNA, read-out: IC50 Papain

Sequence of cathepsin B (P00787 80-339): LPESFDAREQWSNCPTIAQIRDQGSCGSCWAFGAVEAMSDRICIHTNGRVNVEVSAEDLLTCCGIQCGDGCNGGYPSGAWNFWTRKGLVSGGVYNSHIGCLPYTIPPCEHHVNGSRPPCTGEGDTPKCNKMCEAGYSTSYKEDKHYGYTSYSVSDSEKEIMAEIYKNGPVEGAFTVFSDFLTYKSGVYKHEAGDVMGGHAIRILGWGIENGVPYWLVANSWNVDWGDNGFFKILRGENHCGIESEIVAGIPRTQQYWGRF

With O=C(O)CC1CN2C(=O)CC2O1 (stereo not shown) the pIC50 (papain) was 5.77 and the pIC50 (cathepsin B; [1]) was 5.40.
In the case of O=C(N[C@@H](Cc1ccccc1)C(=O)OC[C@H]1CN2C(=O)C[C@@H]2O1)OCc1ccccc1 (mixture of isomers) [Example 4, (3RS,5SR)-3-{N-(benzyloxycarbonyl)-L-phenylalanyl}-oxymethyl-4-oxa-1-azabicyclo [3,2,0] heptan-7-one], the pIC50 (papain; [2]) was 6.62 and the pIC50 (cathepsin B; [1]) was 6.23.
With O=C(OC[C@H]1CN2C(=O)C[C@@H]2O1)[C@@H]1CCCN1C(=O)OCc1ccccc1 (mixture of isomers) [Example 5, (3RS,5SR)-3-{N-(benzyloxycarbonyl)-L-prolyl}-oxymethyl-4-oxa-1-azabicyclo[3,2,0] heptan-7-one] the pIC50 (papain; [2]) was 6.31 and the pIC50 (cathepsin B; [1]) was 6.36.
Compound CC[C@H](C)[C@H](NC(=O)OCc1ccccc1)C(=O)OC[C@H]1CN2C(=O)C[C@@H]2O1 (mixture of isomers) [Example 6, (3RS,5SR) -3-{N-(benzyloxycarbonyl)-L-isoleucyl}-oxymethyl-4-oxa-1-azabicyclo [3,2,0] heptan-7-one] has a pIC50 (papain; [2]) of 6.42 and a pIC50 (cathepsin B; [1]) of 6.29.
For O=C(CNC(=O)[C@H](Cc1ccccc1)NC(=O)OCc1ccccc1)OC[C@H]1CN2C(=O)C[C@@H]2O1 (mixture of isomers) [Example 7, (3RS,5SR)-3-{N-(benzyloxycarbonyl)-L-phenylalanyl-glycyl}-oxymethyl-4-oxa-1-azabicyclo [3,2,0] heptan-7-one], the pIC50 (papain; [2]) was 5.45 and the pIC50 (cathepsin B; [1]) was 5.51.
Compound CC[C@H](C)[C@H](NC(=O)OCc1ccccc1)C(=O)N1CCC[C@H]1C(=O)OC[C@H]1CN2C(=O)C[C@@H]2O1 (mixture of isomers) [Example 8, (3RS, 5SR)-3-{N-(benzyloxycarbonyl)-L-isoleucyl-L-prolyl}-oxymethyl-4-oxa-1-azabicyclo [3,2,0] heptan-7-one] has a pIC50 (papain; [2]) of 6.13 and a pIC50 (cathepsin B; [1]) of 5.35.
CC(C)C[C@H](NC(=O)OCc1ccccc1)C(=O)N1CCC[C@H]1C(=O)OC[C@H]1CN2C(=O)C[C@@H]2O1 (mixture of isomers) [Example 9, (3RS, 5SR)-3-{N-(benzyloxycarbonyl)-L-leucyl-L-prolyl}-oxymethyl-4-oxa-1-azabicyclo [3,2,0] heptan-7-one] was tested, and the pIC50 (papain; [2]) was 5.69 and the pIC50 (cathepsin B; [1]) was 5.54.
In the case of O=C(OC[C@H]1CN2C(=O)C[C@@H]2O1)C1CCCCC1 (racemic) [Example 11, (3RS,5SR)-3-(cyclohexanecarbonyloxymethyl)-4-oxa-1-azabicyclo [3,2,0] heptan-7-one], the pIC50 (papain; [2]) was 6.00 and the pIC50 (cathepsin B; [1]) was 6.10.
O=C(OC[C@H]1CN2C(=O)C[C@@H]2O1)C1CCCC1 (racemic) [Example 12, (3RS,5SR)-3-(cyclopentanecarbonyloxymethyl)-4-oxa-1-azabicyclo [3,2,0] heptan-7-one] gave a pIC50 (papain; [2]) of 5.95 and a pIC50 (cathepsin B; [1]) of 6.18.
For Cc1c(C(=O)NC[C@@H]2CN3C(=O)C[C@@H]3O2)c(=O)[nH]c2ccccc12 (racemic) [Example 16, (3RS, 5SR)-3-(1,2-dihydro-4-methyl-2-oxo-quinolin-3-yl)-carbonylaminomethyl-4-oxa-1-azabicyclo [3,2,0] heptan-7-one], the pIC50 (papain; [2]) was 6.15 and the pIC50 (cathepsin B; [1]) was 5.38.
Work on Cc1c(C(=O)OC[C@H]2CN3C(=O)C[C@@H]3O2)c(=O)[nH]c2ccccc12 (relative stereo) [Example 10, (3RS, 5SR)-3-(1,2-dihydro-4-methyl-2-oxo-guinolin-3-yl)-carbonyloxymethyl-4-oxa-1-azabicyclo [3,2,0] heptan-7-one] yielded a pIC50 (papain; [2]) of 6.85 and a pIC50 (cathepsin B; [1]) of 5.52.
O=C(/C=C/c1ccccc1)OC[C@H]1CN2C(=O)C[C@@H]2O1 (relative stereo) [Example 13, (3RS, 5SR)-3-(trans-3-phenylpropenoyl)oxymethyl-4-oxa-1-azabicyclo [3,2,0] heptan-7-one] was tested, and the pIC50 (papain; [2]) was 6.35 and the pIC50 (cathepsin B; [1]) was 5.39.
Cn1c2nc(=O)[nH]c(=O)c-2nc2cc(C(=O)OC[C@H]3CN4C(=O)C[C@@H]4O3)ccc21 (relative stereo) [Example 14, (3RS, 5SR)-3-(10-methylisoalloxazin-7-yl)-carbonyloxy methyl-4-oxa-1-azabicyclo [3,2,0] heptan-7-one] was tested, and the pIC50 (papain; [2]) was 6.12 and the pIC50 (cathepsin B; [1]) was 4.77.
Compound CCOC(=O)c1ccc2c(c1)nc1c(=O)n(C[C@H]3CN4C(=O)C[C@@H]4O3)c(=O)nc-1n2C (relative stereo) [Example 15, (3RS, 5SR)-3-(7-ethoxycarbonyl-10-methylisoalloxazin-3-yl) -methyl-4-oxa-1-azabicyclo [3,2,0] heptan-7-one] has a pIC50 (papain; [2]) of 5.91 and a pIC50 (cathepsin B; [1]) of 5.54.
With CC(C)(C)[Si](C)(C)OC[C@H]1CN2C(=O)C[C@@H]2O1 [Example 1A, (3R, 5S)-3-(tert-butyldimethylsilyl)oxymethyl-4-oxa-1-azabicyclo [3,2,0] heptan-7-one] the pIC50 (papain; [2]) was 6.80 and the pIC50 (cathepsin B) was 6.11.
With CC(C)(C)[Si](C)(C)OC[C@H]1CN2C(=O)C[C@H]2O1 [Example 1B, (3R, 5R)-3-(tert-butyldimethylsilyl)oxymethyl-4-oxa-1-azabicyclo [3,2,0] heptan-7-one] the pIC50 (papain; [2]) was 5.51 and the pIC50 (cathepsin B) was 5.11.
Compound O=C1C[C@@H]2O[C@@H](CO)CN12 [Example 2, (3R, 5S)-3-hydroxymethyl-4-oxa-1-azabicyclo[3,2,0] heptan-7-one] has a pIC50 (papain; [2]) of 5.69 and a pIC50 (cathepsin B; [1]) of 5.30.
For CC(=O)NC[C@H]1CN2C(=O)C[C@@H]2O1 [Example 3, (3S,5S)-3-(N-acetylamino)methyl-4-oxa-1-azabicyclo [3,2,0] heptan-7-one], the pIC50 (papain; [2]) was 6.23 and the pIC50 (cathepsin B; [1]) was 6.25.
With O=C1C[C@@H]2O[C@@H](Cn3ccnn3)CN12 [Example 17, (3R,5S)-3-(1,2,3-triazol-1-yl)-methyl-4-oxa-1-azabicyclo [3,2,0] heptan-7-one] the pIC50 (papain) was 6.54 and the pIC50 (cathepsin B; [1]) was 6.54.
O=C(CC1CN2C(=O)CC2O1)OC(c1ccccc1)c1ccccc1 (stereo not shown) [Example 18, diphenylmethyl 2-(7-oxo-4-oxa-1-azabicyclo [3,2,0]heptan-3-yl)-acetate] was tested, and the pIC50 (papain; [2]) was 5.68 and the pIC50 (cathepsin B; [1]) was 5.53.
Compound O=C(OCc1ccccc1)[C@@H]1CCCN1C(=O)CC1CN2C(=O)CC2O1 (stereo partly drawn) [Example 20, N-{(7-oxo-4-oxa-1-azabicyclo [3,2,0]heptan-3-yl)-methylcarbonyl} L-proline benzyl ester] has a pIC50 (papain; [2]) of 6.25 and a pIC50 (cathepsin B; [1]) of 4.86.
In the case of NC(CC(=O)O)C(=O)NCC1CN2C(=O)CC2O1 (stereo not shown) [Example 21], the pIC50 (papain; [2]) was < 4.70 and the pIC50 (cathepsin B; [1]) was 4.90.
NC(CC(=O)O)C(=O)OCC1CN2C(=O)CC2O1 (stereo not shown) [Example 22] was tested, and the pIC50 (papain; [2]) was < 4.70 and the pIC50 (cathepsin B; [1]) was < 4.70.
In the case of O=C(N[C@@H](Cc1ccccc1)C(=O)NCC1CN2C(=O)CC2O1)OCc1ccccc1 (stereo partly shown) [Example 23], the pIC50 (papain; [2]) was 6.46 and the pIC50 (cathepsin B; [1]) was 5.62.
For NC(CCC(=O)OCC1CN2C(=O)CC2O1)C(=O)O (stereo not shown) [Example 24], the pIC50 (papain; [2]) was 5.53 and the pIC50 (cathepsin B; [1]) was 4.92.
CC(N)C(=O)OCC1CN2C(=O)CC2O1 (stereo not shown) [Example 25] was tested, and the pIC50 (papain; [2]) was 5.48 and the pIC50 (cathepsin B; [1]) was < 4.70.
CC(N)C(=O)NCC1CN2C(=O)CC2O1 (stereo not shown) [Example 26] was tested, and the pIC50 (papain; [2]) was 5.54 and the pIC50 (cathepsin B; [1]) was < 4.70.
Work on O=C(CCl)NCC1CN2C(=O)CC2O1 (stereo not shown) [Example 27] yielded a pIC50 (papain; [2]) of 6.05 and a pIC50 (cathepsin B; [1]) of 6.40.
O=C1CC2OC(CNC(=O)C(F)(F)F)CN12 (stereo not shown) [Example 28] was tested, and the pIC50 (papain; [2]) was 6.08 and the pIC50 (cathepsin B; [1]) was 6.48.
Work on O=C(O)C[S+]([O-])CC1CN2C(=O)CC2O1 (stereo not shown) [Example 29] yielded a pIC50 (papain; [2]) of 5.41 and a pIC50 (cathepsin B; [1]) of 6.42.
Work on CC(C)C(=O)NCC1CN2C(=O)CC2O1 (stereo not shown) [Example 30] yielded a pIC50 (papain; [2]) of 6.02 and a pIC50 (cathepsin B; [1]) of 6.34.
CC(=O)NCC(=O)NCC1CN2C(=O)CC2O1 (stereo not shown) [Example 31] gave a pIC50 (papain; [2]) of 5.39 and a pIC50 (cathepsin B; [1]) of 5.59.
CCCCCC(=O)NCC1CN2C(=O)CC2O1 (stereo not shown) [Example 32] was tested, and the pIC50 (papain; [2]) was 5.64 and the pIC50 (cathepsin B; [1]) was 5.64.
For CS(=O)(=O)NCC1CN2C(=O)CC2O1 (stereo not shown) [Example 33], the pIC50 (papain; [2]) was 6.04 and the pIC50 (cathepsin B; [1]) was 6.02.
Work on CC(=O)NCC[S+]([O-])CC1CN2C(=O)CC2O1 (stereo not shown) [Example 34] yielded a pIC50 (papain; [2]) of 5.42 and a pIC50 (cathepsin B; [1]) of 4.84.
Work on O=C(O)CS(=O)(=O)CC1CN2C(=O)CC2O1 (stereo not shown) [Example 35] yielded a pIC50 (papain; [2]) of 4.89 and a pIC50 (cathepsin B; [1]) of 6.13.
For CCCCCCCCCCCCCCCC(=O)OCC1CN2C(=O)CC2O1 (stereo not shown) [Example 36], the pIC50 (papain; [2]) was < 4.30 and the pIC50 (cathepsin B; [1]) was < 4.30.
O=C(O)C=CC(=O)OCC1CN2C(=O)CC2O1 (stereo not shown) [Example 37] showed a pIC50 (papain; [2]) of 4.72 and a pIC50 (cathepsin B; [1]) of 5.72.
O=COCCCCCC(=O)NCC1CN2C(=O)CC2O1 (stereo not shown) [Example 38] was tested, and the pIC50 (papain; [2]) was 5.66 and the pIC50 (cathepsin B; [1]) was 5.46.
NCC1CN2C(=O)CC2O1 (stereo not shown) [Example 39] gave a pIC50 (papain; [2]) of 5.26 and a pIC50 (cathepsin B; [1]) of 5.26.
NC(CC(=O)O)C(=O)NCC(=O)NCC1CN2C(=O)CC2O1 (stereo not shown) [Example 40] was tested, and the pIC50 (papain; [2]) was 5.08 and the pIC50 (cathepsin B; [1]) was 4.80.
In the case of CC(=O)NCCCCC(NC(C)=O)C(=O)OCC1CN2C(=O)CC2O1 (stereo not shown) [Example 43], the pIC50 (papain; [2]) was 5.75 and the pIC50 (cathepsin B; [1]) was < 4.15.
Work on CC(=O)OCC1CN2C(=O)CC2O1 (stereo not shown) [Example 44] yielded a pIC50 (papain; [2]) of 6.68 and a pIC50 (cathepsin B; [1]) of 5.96.
O=C(CO)NCC1CN2C(=O)CC2O1 (stereo not shown) [Example 45] showed a pIC50 (papain; [2]) of 5.77 and a pIC50 (cathepsin B; [1]) of 5.30.
In the case of O=C(OCC1CN2C(=O)CC2O1)c1ccc2c(c1)C(=O)c1ccccc1C2=O (stereo not shown) [Example 46], the pIC50 (papain; [2]) was 7.68 and the pIC50 (cathepsin B; [1]) was 6.28.
In the case of COc1ccc(C(=O)NCC2CN3C(=O)CC3O2)cc1OC (stereo not shown) [Example 47], the pIC50 (papain; [2]) was 6.89 and the pIC50 (cathepsin B; [1]) was 5.06.
O=C1CC2OC(CSc3ccccc3)CN12 (stereo not shown) [Example 48] was tested, and the pIC50 (papain; [2]) was 6.07 and the pIC50 (cathepsin B; [1]) was 6.38.
